This is an account of results in patent US20020019394A1, “Bicyclic sulfonyl amino inhibitors of factor Xa” (priority 2000, published 2002).

Where two headings read alike, the source gives them in different places. Where only a bound is given, the exact number is not on record here.

One assay addresses thrombin (Homo sapiens, UniProt P00734). The experiment in a line: Thrombin amidolytic assay (Chromozym TH).
Another assay has as its target T1, PLASMIN (Homo sapiens, UniProt P00747).
T1 construct: PLASMIN
The experiment in a line: In vitro protease activity assay, plasmin. The format is biochemical. An excerpt:
(§1) Evaluation of the compounds of this invention is guided by in vitro protease activity assays (see below) and in vivo studies to evaluate antithrombotic efficacy, and effects on hemostasis and hematological parameters (see below).

The target of the next assay is factor Xa (Homo sapiens, UniProt P00742). Briefly: Factor Xa amidolytic assay (chromogenic substrate S-2765).
factor Xa, sequence (P00742 235-488 limits assumed): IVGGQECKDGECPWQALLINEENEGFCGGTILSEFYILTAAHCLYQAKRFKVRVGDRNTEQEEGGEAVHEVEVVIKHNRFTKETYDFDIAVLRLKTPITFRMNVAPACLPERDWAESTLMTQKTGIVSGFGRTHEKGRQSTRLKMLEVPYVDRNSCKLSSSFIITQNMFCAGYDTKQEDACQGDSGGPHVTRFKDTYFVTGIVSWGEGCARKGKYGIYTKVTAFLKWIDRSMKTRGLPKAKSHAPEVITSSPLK
factor Xa, sequence (P00742 41-179 limits assumed): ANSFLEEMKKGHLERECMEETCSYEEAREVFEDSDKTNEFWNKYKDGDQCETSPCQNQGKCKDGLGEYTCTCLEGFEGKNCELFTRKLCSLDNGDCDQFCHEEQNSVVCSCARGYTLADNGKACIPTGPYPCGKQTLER
The next assay addresses TPA (Homo sapiens, UniProt P00750). Briefly: In vitro protease activity assay, TPA. In kind it is biochemical.
From the text: as §1

The target in a further assay is prothrombinase complex (Homo sapiens, UniProt P00742). The experiment in a line: Prothrombinase inhibition assay, plasma free system. In kind it is biochemical. As to the method: The prothrombinase inhibition assay is performed in a plasma free system with modifications to the method described by Sinha, U. et al., Thromb. […] Specifically, the activity of the prothrombinase complex is determined by measuring the time course of thrombin generation using the p-nitroanilide substrate Chromozym TH. […] Aliquots from the complex-inhibitor mixture are added to prothrombin (1 nM) and Chromozym TH (0.1 mM). […] Eight different concentrations of inhibitor are assayed in duplicate. A standard curve of thrombin generation by an equivalent amount of untreated complex is used for determination of percent inhibition.
prothrombinase complex, sequence (P00742 235-488 limits assumed): as the sequence (P00742 235-488 limits assumed) above
prothrombinase complex, sequence (P00742 41-179 limits assumed): as the sequence (P00742 41-179 limits assumed) above
prothrombinase complex, sequence (P12259 29-737 partner limits assumed): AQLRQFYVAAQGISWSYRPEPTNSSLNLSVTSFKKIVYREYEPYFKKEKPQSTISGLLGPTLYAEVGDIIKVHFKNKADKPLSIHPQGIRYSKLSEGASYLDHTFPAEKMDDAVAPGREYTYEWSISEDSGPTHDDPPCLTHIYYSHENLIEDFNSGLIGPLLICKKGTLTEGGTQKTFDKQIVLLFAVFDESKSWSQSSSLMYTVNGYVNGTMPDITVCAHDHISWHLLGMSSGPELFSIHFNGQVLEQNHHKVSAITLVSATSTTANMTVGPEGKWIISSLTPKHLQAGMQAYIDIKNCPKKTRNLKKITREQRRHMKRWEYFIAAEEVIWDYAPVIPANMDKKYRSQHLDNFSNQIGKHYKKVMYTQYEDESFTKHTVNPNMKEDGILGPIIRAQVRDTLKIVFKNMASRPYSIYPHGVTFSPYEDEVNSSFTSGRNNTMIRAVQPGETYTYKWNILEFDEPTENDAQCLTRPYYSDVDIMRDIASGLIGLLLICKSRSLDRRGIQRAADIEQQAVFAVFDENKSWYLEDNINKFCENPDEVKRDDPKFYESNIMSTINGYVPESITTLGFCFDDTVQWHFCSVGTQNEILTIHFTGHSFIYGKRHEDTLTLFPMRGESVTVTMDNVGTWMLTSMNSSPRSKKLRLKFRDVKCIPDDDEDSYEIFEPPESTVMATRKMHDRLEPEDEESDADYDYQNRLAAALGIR
prothrombinase complex, sequence (P12259 1574-2224 partner limits assumed): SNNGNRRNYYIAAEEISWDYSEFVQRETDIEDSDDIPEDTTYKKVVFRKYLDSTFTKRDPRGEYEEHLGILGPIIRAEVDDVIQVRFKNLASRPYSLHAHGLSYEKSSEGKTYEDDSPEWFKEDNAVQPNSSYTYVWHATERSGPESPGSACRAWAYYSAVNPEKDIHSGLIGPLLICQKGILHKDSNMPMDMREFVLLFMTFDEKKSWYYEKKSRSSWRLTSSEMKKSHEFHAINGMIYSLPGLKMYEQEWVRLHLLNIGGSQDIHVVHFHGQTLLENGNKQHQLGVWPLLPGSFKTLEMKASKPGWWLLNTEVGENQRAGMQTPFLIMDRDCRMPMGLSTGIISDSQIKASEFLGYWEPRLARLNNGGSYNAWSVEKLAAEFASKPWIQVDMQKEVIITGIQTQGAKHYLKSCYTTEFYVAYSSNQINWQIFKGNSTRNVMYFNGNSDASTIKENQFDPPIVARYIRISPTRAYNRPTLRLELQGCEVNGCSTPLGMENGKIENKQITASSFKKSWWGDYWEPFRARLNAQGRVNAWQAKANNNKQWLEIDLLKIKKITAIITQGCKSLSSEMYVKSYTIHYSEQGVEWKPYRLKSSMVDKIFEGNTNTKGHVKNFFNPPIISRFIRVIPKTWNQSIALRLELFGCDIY

The target of another assay is APC (Homo sapiens, UniProt P04070). The experiment in a line: In vitro protease activity assay, APC. The format is biochemical.
APC, sequence (P04070 212-450 limits assumed): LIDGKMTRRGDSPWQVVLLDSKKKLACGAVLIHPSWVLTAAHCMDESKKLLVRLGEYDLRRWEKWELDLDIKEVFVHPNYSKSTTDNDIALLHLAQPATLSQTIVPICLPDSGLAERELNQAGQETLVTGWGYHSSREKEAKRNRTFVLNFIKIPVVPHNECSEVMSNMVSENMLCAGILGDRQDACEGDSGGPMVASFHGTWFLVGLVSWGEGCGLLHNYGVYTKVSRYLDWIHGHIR
APC, sequence (P04070 43-197 limits assumed): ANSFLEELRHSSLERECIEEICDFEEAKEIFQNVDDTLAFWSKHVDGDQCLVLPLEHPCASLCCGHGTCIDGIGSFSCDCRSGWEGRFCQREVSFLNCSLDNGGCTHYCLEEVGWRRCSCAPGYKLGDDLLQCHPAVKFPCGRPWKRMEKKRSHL
From the text: as §1

[1] abbreviates: Table 4, read-out: IC50 (nM) Prothrombinase.
[2] abbreviates: Table 6, read-out: IC50 (nM) Prothrombinase.

T1 sequence (P00747 581-810 limits assumed, species assumed): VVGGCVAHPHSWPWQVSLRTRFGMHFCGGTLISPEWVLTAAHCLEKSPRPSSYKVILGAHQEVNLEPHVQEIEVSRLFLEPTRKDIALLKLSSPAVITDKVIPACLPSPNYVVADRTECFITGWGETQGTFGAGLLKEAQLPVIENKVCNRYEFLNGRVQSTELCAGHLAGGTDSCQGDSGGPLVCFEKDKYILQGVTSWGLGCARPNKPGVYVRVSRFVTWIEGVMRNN
T1 sequence (P00747 97-580 limits assumed, species assumed): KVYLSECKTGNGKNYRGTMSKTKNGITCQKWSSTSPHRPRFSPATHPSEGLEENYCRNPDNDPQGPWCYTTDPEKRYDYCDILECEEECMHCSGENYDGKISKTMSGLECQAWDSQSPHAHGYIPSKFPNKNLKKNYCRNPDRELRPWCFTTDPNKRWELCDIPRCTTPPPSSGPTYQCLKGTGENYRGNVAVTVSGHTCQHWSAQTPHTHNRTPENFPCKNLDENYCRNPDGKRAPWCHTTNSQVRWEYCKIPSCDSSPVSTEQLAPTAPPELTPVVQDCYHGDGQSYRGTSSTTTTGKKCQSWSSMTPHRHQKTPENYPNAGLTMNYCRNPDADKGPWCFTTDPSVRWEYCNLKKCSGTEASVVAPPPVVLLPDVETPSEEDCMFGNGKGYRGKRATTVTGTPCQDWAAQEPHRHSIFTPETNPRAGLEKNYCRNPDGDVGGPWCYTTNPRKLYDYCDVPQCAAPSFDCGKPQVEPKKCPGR
TPA, sequence (P00750 36-562, species assumed): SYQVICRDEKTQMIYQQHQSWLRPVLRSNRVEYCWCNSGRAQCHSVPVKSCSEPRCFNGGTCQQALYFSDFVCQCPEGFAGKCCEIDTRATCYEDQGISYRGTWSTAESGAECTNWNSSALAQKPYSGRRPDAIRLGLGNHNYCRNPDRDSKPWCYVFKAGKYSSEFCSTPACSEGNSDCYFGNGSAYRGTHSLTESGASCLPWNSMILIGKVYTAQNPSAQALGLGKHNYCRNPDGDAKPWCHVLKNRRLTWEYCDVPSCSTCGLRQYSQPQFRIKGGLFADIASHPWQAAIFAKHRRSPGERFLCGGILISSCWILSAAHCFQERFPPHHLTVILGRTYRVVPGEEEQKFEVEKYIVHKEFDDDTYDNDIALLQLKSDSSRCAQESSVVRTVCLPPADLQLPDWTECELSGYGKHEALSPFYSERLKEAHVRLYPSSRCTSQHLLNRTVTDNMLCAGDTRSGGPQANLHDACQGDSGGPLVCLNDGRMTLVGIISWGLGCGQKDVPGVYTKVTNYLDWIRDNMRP
Method for factor Xa: In the assays for thrombin, prothrombinase and factor Xa, a synthetic chromogenic substrate is added to a solution containing test compound and the enzyme of interest and the residual catalytic activity of that enzyme is determined spectrophotometrically. The IC50 of a compound is determined from the substrate turnover. […] The factor Xa and thrombin assays are performed at room temperature, in 0.02 M Tris.HCl buffer, pH 7.5, containing 0.15 M NaCl.

On to `CC(=N)N1CCC(Oc2ccc(N(Cc3cc4cc(C(=N)N)ccc4s3)S(C)(=O)=O)cc2)CC1` [Compound 13], for which the IC50 at thrombin worked out at 30.9 µM.

Consider `N=C(N)c1ccc2ccc(CN3c4ccc(OC5CCN(C(=N)N)CC5)cc4CCS3(=O)=O)cc2c1` [Example 7], for which the IC50 is 2.23 µM against PLASMIN; 0.0153 µM on factor Xa; 5.96 µM against TPA; 33.2 nM at prothrombinase complex (read-out: IIASE); 24.8 µM on thrombin; 3.37 µM at APC.

As for `NC(=O)c1ccc2ccc(CN3c4ccc(OC5CCNCC5)cc4CCS3(=O)=O)cc2c1` [Example 5], the IC50 against factor Xa was 1.31 µM; at prothrombinase complex (read-out: IIASE), 1290 nM.

As for `N=C(N)c1ccc2ccc(CN3c4ccc(OC5CCN(C(=N)N)CC5)cc4C=CS3(=O)=O)cc2c1` [Example 3], the IC50 was found to be 1.14 µM against PLASMIN; 0.0113 µM against factor Xa; 1.21 µM against TPA; 10 nM at prothrombinase complex (read-out: IIASE); 16.7 µM against thrombin; 0.895 µM on APC.

With `N=C(N)c1ccc2ccc(CN3c4ccc(OC5CCNCC5)cc4C=CS3(=O)=O)cc2c1` [Example 1], the IC50 on factor Xa was 1.03 µM; at prothrombinase complex (read-out: IIASE), 15800 nM; against thrombin, 136 µM.

The molecule `CC(=N)N1CCC(Oc2ccc(N(Cc3cc(C)nn3-c3cccc(C(=N)N)c3)S(C)(=O)=O)cc2)CC1` [Compound 16] showed an IC50 at thrombin of more than 11 µM.

In the case of `CC(=N)N1CCC(Oc2ccc(N(Cc3cccc(-c4cccc(C(=N)N)c4)c3)S(C)(=O)=O)cc2)CC1` [Compound 3], on thrombin, the IC50 turned out to be 133 µM.

Consider `CC(=N)N1CCC(Oc2ccc(N(Cc3ccc4ccc(C(=N)N)cc4c3)S(C)(=O)=O)cc2)CC1` [Compound 2], for which the values for the IC50 against factor Xa, at prothrombinase complex (setting [1]) and against thrombin were 0.0063 µM, 7 nM and 95.2 µM, respectively.

With `CC(=N)N1CCC(Oc2ccc3c(c2)C=CS(=O)(=O)N3Cc2ccc3ccc(C(=N)N)cc3c2)CC1` [Example 2], the IC50 is 2.35 µM against PLASMIN; 0.00641 µM on factor Xa; 1.6 µM at TPA; 64.6 nM on prothrombinase complex (read-out: IIASE); 117 µM against thrombin; 1.88 µM against APC.

Consider `CS(=O)(=O)N(Cc1ccc2ccc(C(=N)N)cc2c1)c1ccc(C(=O)N2CCC[C@H]2C(N)=O)cc1` [Compound 25], for which the IC50 against factor Xa came to 4.06 µM; at prothrombinase complex (Table 5, read-out: IC50 (nM) Prothrombinase) it was 95000 nM; against thrombin, 146 µM.

Regarding `CCOC(=O)CS(=O)(=O)N(Cc1cc2cc(C(=N)N)ccc2s1)c1ccc(OC2CCN(C(C)=N)CC2)cc1` [Compound 42], the IC50 is 0.0091 µM at factor Xa, 8.4 nM at prothrombinase complex (setting [2]) and 12 µM at thrombin.

As for `CC(=N)N1CCC(Oc2ccc(N(Cc3cccc(-c4cccc(C(=N)N)c4)c3)S(=O)(=O)CC(=O)O)cc2)CC1` [Compound 41], the IC50 is 0.0036 µM against factor Xa, 6.6 nM at prothrombinase complex (setting [2]) and 39.2 µM against thrombin.

Regarding `CC(=N)N1CCC(Oc2ccc(N(Cc3cc4cc(C(=N)N)ccc4s3)S(=O)(=O)CC(=O)O)cc2)CC1` [Compound 43], the figures for the IC50 against factor Xa, on prothrombinase complex (setting [2]) and on thrombin were 0.0035 µM, 7.6 nM and 193 µM, respectively.

`CC(=N)N1CCC(Oc2ccc(N(Cc3ccc(-c4cccc(C(=N)N)c4)cc3)S(C)(=O)=O)cc2)CC1` [Compound 12]: the IC50 was 0.0252 µM at factor Xa; 730 nM on prothrombinase complex (Table 3, read-out: IC50 (nM) Prothrombinase); more than 11 µM against thrombin.

Turning to `CS(=O)(=O)N(Cc1ccc2ccc(C(=N)N)cc2c1)c1ccc(C(=O)N2CCCC2C(N)=O)cc1` (stereo not shown) [Example 24], the IC50 at factor Xa (read-out: XA, Examples 1-26 table) worked out at 3.44 µM.

In the case of `CC(=N)N1CCC(Oc2ccc3c(c2)CCS(=O)(=O)N3Cc2ccc3ccc(C(=N)N)cc3c2)CC1` [Example 6], the IC50 against PLASMIN amounted to 2.36 µM; on factor Xa it was 0.012 µM; against TPA, 4.53 µM; at prothrombinase complex (read-out: IIASE), 12.2 nM; against thrombin, 116 µM; against APC it was 3.85 µM.

Regarding `CC(=N)N1CCC(Oc2ccc(N(Cc3cc(C)n(-c4cccc(C(=N)N)c4)n3)S(C)(=O)=O)cc2)CC1` [Compound 17], the IC50 against thrombin was more than 11 µM.

As to `CC(=N)N1CCC(Oc2ccc(N(Cc3cc4cc(C(=N)N)ccc4n3C)S(C)(=O)=O)cc2)CC1` [Compound 15], the values for the IC50 at factor Xa, on prothrombinase complex (setting [1]) and on thrombin were 0.0306 µM, 66.5 nM and 11.8 µM, respectively.

For the molecule `N=C(N)c1ccc2ccc(CN3c4ccc(OC5CCNCC5)cc4CCS3(=O)=O)cc2c1` [Example 4], the values for the IC50 on factor Xa, at prothrombinase complex (read-out: IIASE) and on thrombin were 1.18 µM, 2000 nM and 256 µM, respectively.
